Laboratory results: US10881703B2, “Composition for use in the treatment of intestinal alterations” (priority 2016, dated 2021)

Test system: THP-1 cells and intestinal epithelial cells (CacoGoblet)
Test: Monocyte-epithelial cell adhesion assay (THP-1 cells on CacoGoblet)
Format: cell-based, human
Conditions: inflamed mucosa (IL1 beta 10 ng/ml overnight), 24 hours treatment
Method: The CacoGoblet cells were pre-treated with 10 ng/ml of IL1 beta overnight. […] A parallel treatment was carried out with the reference molecule etacortilen (Dexamethasone Sodium Phosphate) at 0.15% in order to study the overcoming of the inflammatory state of the mucosa. […] Once the non-adherent cells had been removed, the residual surface fluorescence of the THP-1 cells was evaluated under a microscope. The anti-inflammatory activity of the various compounds at the intestinal level was assessed in a static assay using the reduction in the cellular adhesion of THP-1 on CacoGoblet as an endpoint parameter. • 2) Ability of Cranberries to Prevent Adhesion of E. Coli to Mucosa The CacoGoblet cells were treated overnight with IL-1beta, the pro-inflammatory cytokine, prior to the adhesion assay in order to create inflamed mucosa. The treated monolayers were then treated with the products for 24 hours. The marked THP-1 cells were added on top of the CacoGoblet in each well. The THP-1 cells were marked with the fluorescent dye chloromethylfluorescein diacetate (CMFDA; Invitrogen). After incubation, the monolayer was gently washed to remove the non-adherent THP-1 cells. The adherent cells marked with the fluorescent dye were viewed under a fluorescence microscope. […]

With `C[C@@H]1C[C@H]2[C@@H]3CCC4=CC(=O)C=C[C@]4(C)[C@@]3(F)[C@@H](O)C[C@]2(C)[C@@]1(O)C(=O)COP(=O)(O)O` [etacortilen, Dexamethasone Sodium Phosphate] the “adhesion of THP-1 cells” value was “significant decrease in the adhesion of THP-1 cells”.
